Source: publication PMC8636460, “Pharmacological and Biophysical Characteristics of Picrotoxin-Resistant, δSubunit-Containing GABAA Receptors” (Frontiers in Synaptic Neuroscience, 2021)

Legend:
[1] = target: T1, α4β2δ GABAAR (human α4, rat β2, rat δ with N-terminal FLAG) (Rattus norvegicus (beta2, delta); Homo sapiens (alpha4), UniProt P18506+P48169+P63138); test: whole-cell patch clamp in transfected N2a cells, agonist concentration response, Hill fit; format: cell-based
T1 construct: gene GABRA4; free full subunits transiently transfected (cDNA α:β:δ 1:1:2) in mouse Neuro-2a cells
T1 sequence (P63138 26-474): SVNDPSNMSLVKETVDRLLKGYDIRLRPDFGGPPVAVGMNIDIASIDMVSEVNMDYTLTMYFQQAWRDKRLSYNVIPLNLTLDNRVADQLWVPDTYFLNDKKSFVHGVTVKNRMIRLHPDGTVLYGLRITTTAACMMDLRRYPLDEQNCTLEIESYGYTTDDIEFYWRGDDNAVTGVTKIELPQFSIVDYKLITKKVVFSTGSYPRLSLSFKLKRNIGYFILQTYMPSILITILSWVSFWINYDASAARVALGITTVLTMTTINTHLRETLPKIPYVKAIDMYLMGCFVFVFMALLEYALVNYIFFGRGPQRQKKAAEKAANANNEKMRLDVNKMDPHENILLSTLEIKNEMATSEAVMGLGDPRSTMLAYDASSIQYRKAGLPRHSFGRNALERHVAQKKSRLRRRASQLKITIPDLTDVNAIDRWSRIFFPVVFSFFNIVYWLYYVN
T1 sequence (P48169 36-554): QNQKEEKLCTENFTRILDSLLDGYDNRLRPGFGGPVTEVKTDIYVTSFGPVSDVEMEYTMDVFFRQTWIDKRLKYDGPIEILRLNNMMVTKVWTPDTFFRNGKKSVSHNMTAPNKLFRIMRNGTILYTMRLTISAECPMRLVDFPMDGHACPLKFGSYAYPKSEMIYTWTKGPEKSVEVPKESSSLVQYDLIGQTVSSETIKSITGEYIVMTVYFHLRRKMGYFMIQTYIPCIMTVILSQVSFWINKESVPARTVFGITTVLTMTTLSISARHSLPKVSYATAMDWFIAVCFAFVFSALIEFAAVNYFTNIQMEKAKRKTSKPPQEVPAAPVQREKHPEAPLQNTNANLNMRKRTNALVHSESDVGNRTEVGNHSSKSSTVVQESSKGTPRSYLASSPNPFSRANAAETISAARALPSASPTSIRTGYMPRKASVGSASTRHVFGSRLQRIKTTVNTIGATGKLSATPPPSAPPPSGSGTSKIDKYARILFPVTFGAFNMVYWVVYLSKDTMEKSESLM
T1 sequence (P18506 25-449): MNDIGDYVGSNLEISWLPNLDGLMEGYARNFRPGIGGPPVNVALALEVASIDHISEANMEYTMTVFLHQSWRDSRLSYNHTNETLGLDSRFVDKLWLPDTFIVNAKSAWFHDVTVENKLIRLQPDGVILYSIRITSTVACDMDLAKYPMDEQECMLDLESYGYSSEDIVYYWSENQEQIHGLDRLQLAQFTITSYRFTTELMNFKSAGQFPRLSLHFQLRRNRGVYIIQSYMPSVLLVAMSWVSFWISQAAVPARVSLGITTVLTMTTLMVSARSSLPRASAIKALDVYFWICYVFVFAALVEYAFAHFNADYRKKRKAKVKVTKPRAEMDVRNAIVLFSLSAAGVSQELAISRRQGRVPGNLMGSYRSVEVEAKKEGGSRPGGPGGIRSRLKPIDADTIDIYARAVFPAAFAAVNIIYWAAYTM

[2] = target: T2, α4β2δ GABAAR (human α4, rat β2, rat δ with N-terminal FLAG) (Rattus norvegicus (beta2, delta); Homo sapiens (alpha4), UniProt P18506+P48169+P63138, P18506:T285Y); test: as above; format: cell-based
T2 construct: gene GABRA4; free full subunits transiently transfected (cDNA α:β:δ 1:1:2) in mouse Neuro-2a cells
T2 sequence (P48169 36-554): as the sequence (P48169 36-554) above
T2 sequence (P63138 26-474): as the sequence (P63138 26-474) above

With `Oc1noc2c1CCNC2` [THIP, 4,5,6,7-tetrahydroisoxazolo[5,4-c]pyridin-3-ol] the EC50 [1] was 38.7 µM and the EC50 [2] was 16.7 µM.
